Measured values as given in patent publication US20260083714A1, “DOSING REGIMEN FOR TREATING PKU WITH A PIPERIDINE INHIBITOR OF SLC6A19 FUNCTION” (Jnana Therapeutics Inc., priority 2022, published 2026).
Read-outs that look alike come from different tables or passages of the source.

Experiments:
[1] = Plasma levels of Compound 1 over 24 hours after 14 days of suspension administration in healthy volunteers; type: in vivo; settings: human, oral; for concentration at 0 h: 0 h post-dose; for concentration at 0.5 h: 0.5 h post-dose; for concentration at 1 h: 1 h post-dose; for concentration at 1.5 h: 1.5 h post-dose; for concentration at 2 h: 2 h post-dose; for concentration at 2.5 h: 2.5 h post-dose; for concentration at 3 h: 3 h post-dose; for concentration at 4 h: 4 h post-dose; for concentration at 6 h: 6 h post-dose; for concentration at 8 h: 8 h post-dose; for concentration at 8.5 h: 8.5 h post-dose; for concentration at 9 h: 9 h post-dose; for concentration at 9.5 h: 9.5 h post-dose; for concentration at 10 h: 10 h post-dose; for concentration at 10.5 h: 10.5 h post-dose; for concentration at 11.5 h: 11.5 h post-dose; for concentration at 12 h: 12 h post-dose; for concentration at 14 h: 14 h post-dose; for concentration at 16 h: 16 h post-dose; for concentration at 24 h: 24 h post-dose
Method: FIG. 2 is an assessment of the pharmacokinetics of Compound 1 in healthy volunteers over 24 hours after 14 days of administration of a suspension of the compound at three different doses (25 or 75 mg twice daily [BID] or 150 mg once daily [QD]).
A suspension formulation of varying doses of Compound 1 (25 or 75 mg twice daily [BID] or 150 mg once daily [QD]) was administered to healthy volunteers. Plasma levels of Compound 1 over 24 hours after 14 days of administration were measured (FIG. 2). Post-dose plasma levels are recited in Table 14.

[2] = Plasma levels of Compound 1 over 72 h, suspension versus tablet, fasted or fed, in healthy volunteers; type: in vivo; settings: human, oral, 100 mg, read-out: Plasma level, Mean; for concentration at 0.5 h: 0.5 h post-dose; for concentration at 1 h: 1 h post-dose; for concentration at 1.5 h: 1.5 h post-dose; for concentration at 2 h: 2 h post-dose; for concentration at 2.5 h: 2.5 h post-dose; for concentration at 3 h: 3 h post-dose; for concentration at 4 h: 4 h post-dose; for concentration at 6 h: 6 h post-dose; for concentration at 8 h: 8 h post-dose; for concentration at 10 h: 10 h post-dose; for concentration at 12 h: 12 h post-dose; for concentration at 24 h: 24 h post-dose; for concentration at 36 h: 36 h post-dose; for concentration at 48 h: 48 h post-dose; for concentration at 72 h: 72 h post-dose; for concentration at 0 h: 0 h post-dose
Method: FIG. 4 is a graph of the pharmacokinetics of Compound 1 over 72 hours in healthy volunteers in fed or fasted states when administering 100 mg of the compound as a suspension formulation or a tablet.
A suspension formulation (100 mg, fasted) and tablet formulation (100 mg, fasted or fed) of Compound 1 was administered to healthy volunteers. Plasma levels of Compound 1 over 72 was measured (FIG. 4). Post-dose plasma levels are recited in Table 16.

- concentration at 0 h ([1]; 25 mg BID suspension): 186 ng/mL
- concentration at 0.5 h ([1]; 25 mg BID suspension): 1190 ng/mL
- concentration at 1 h ([1]; 25 mg BID suspension): 1090 ng/mL
- concentration at 1.5 h ([1]; 25 mg BID suspension): 1000 ng/mL
- concentration at 2 h ([1]; 25 mg BID suspension): 922 ng/mL
- concentration at 2.5 h ([1]; 25 mg BID suspension): 899 ng/mL
- concentration at 3 h ([1]; 25 mg BID suspension): 820 ng/mL
- concentration at 4 h ([1]; 25 mg BID suspension): 682 ng/mL
- concentration at 6 h ([1]; 25 mg BID suspension): 442 ng/mL
- concentration at 8 h ([1]; 25 mg BID suspension): 336 ng/mL
- concentration at 8.5 h ([1]; 25 mg BID suspension): 894 ng/mL
- concentration at 9 h ([1]; 25 mg BID suspension): 977 ng/mL
- concentration at 9.5 h ([1]; 25 mg BID suspension): 1010 ng/mL
- concentration at 10 h ([1]; 25 mg BID suspension): 1010 ng/mL
- concentration at 10.5 h ([1]; 25 mg BID suspension): 957 ng/mL
- concentration at 11.5 h ([1]; 25 mg BID suspension): 909 ng/mL
- concentration at 12 h ([1]; 25 mg BID suspension): 748 ng/mL
- concentration at 14 h ([1]; 25 mg BID suspension): 562 ng/mL
- concentration at 16 h ([1]; 25 mg BID suspension): 422 ng/mL
- concentration at 24 h ([1]; 25 mg BID suspension): 193 ng/mL
- concentration at 0 h ([1]; 75 mg BID suspension): 916 ng/mL
- concentration at 0.5 h ([1]; 75 mg BID suspension): 3350 ng/mL
- concentration at 1 h ([1]; 75 mg BID suspension): 3860 ng/mL
- concentration at 1.5 h ([1]; 75 mg BID suspension): 3550 ng/mL
- concentration at 2 h ([1]; 75 mg BID suspension): 3330 ng/mL
- concentration at 2.5 h ([1]; 75 mg BID suspension): 3140 ng/mL
- concentration at 3 h ([1]; 75 mg BID suspension): 2910 ng/mL
- concentration at 4 h ([1]; 75 mg BID suspension): 2610 ng/mL
- concentration at 6 h ([1]; 75 mg BID suspension): 2000 ng/mL
- concentration at 8 h ([1]; 75 mg BID suspension): 1600 ng/mL
- concentration at 8.5 h ([1]; 75 mg BID suspension): 3430 ng/mL
- concentration at 9 h ([1]; 75 mg BID suspension): 3600 ng/mL
- concentration at 9.5 h ([1]; 75 mg BID suspension): 3740 ng/mL
- concentration at 10 h ([1]; 75 mg BID suspension): 3600 ng/mL
- concentration at 10.5 h ([1]; 75 mg BID suspension): 3740 ng/mL
- concentration at 11.5 h ([1]; 75 mg BID suspension): 3200 ng/mL
- concentration at 12 h ([1]; 75 mg BID suspension): 2900 ng/mL
- concentration at 14 h ([1]; 75 mg BID suspension): 2280 ng/mL
- concentration at 16 h ([1]; 75 mg BID suspension): 1850 ng/mL
- concentration at 24 h ([1]; 75 mg BID suspension): 741 ng/mL
- concentration at 0 h ([1]; 150 mg QD suspension): 299 ng/mL
- concentration at 0.5 h ([1]; 150 mg QD suspension): 4230 ng/mL
- concentration at 1 h ([1]; 150 mg QD suspension): 4590 ng/mL
- concentration at 1.5 h ([1]; 150 mg QD suspension): 4360 ng/mL
- concentration at 2 h ([1]; 150 mg QD suspension): 4100 ng/mL
- concentration at 2.5 h ([1]; 150 mg QD suspension): 3940 ng/mL
- concentration at 3 h ([1]; 150 mg QD suspension): 3660 ng/mL
- concentration at 4 h ([1]; 150 mg QD suspension): 3130 ng/mL
- concentration at 6 h ([1]; 150 mg QD suspension): 2270 ng/mL
- concentration at 8 h ([1]; 150 mg QD suspension): 1750 ng/mL
- concentration at 10 h ([1]; 150 mg QD suspension): 1360 ng/mL
- concentration at 12 h ([1]; 150 mg QD suspension): 1000 ng/mL
- concentration at 24 h ([1]; 150 mg QD suspension): 247 ng/mL
- concentration at 0.5 h ([2]; 100 mg suspension, fasted): 1840 ng/mL
- concentration at 1 h ([2]; 100 mg suspension, fasted): 2310 ng/mL
- concentration at 1.5 h ([2]; 100 mg suspension, fasted): 2440 ng/mL
- concentration at 2 h ([2]; 100 mg suspension, fasted): 2630 ng/mL
- concentration at 2.5 h ([2]; 100 mg suspension, fasted): 2620 ng/mL
- concentration at 3 h ([2]; 100 mg suspension, fasted): 2720 ng/mL
- concentration at 4 h ([2]; 100 mg suspension, fasted): 2750 ng/mL
- concentration at 6 h ([2]; 100 mg suspension, fasted): 2090 ng/mL
- concentration at 8 h ([2]; 100 mg suspension, fasted): 1580 ng/mL
- concentration at 10 h ([2]; 100 mg suspension, fasted): 1110 ng/mL
- concentration at 12 h ([2]; 100 mg suspension, fasted): 778 ng/mL
- concentration at 24 h ([2]; 100 mg suspension, fasted): 216 ng/mL
- concentration at 36 h ([2]; 100 mg suspension, fasted): 50 ng/mL
- concentration at 48 h ([2]; 100 mg suspension, fasted): 24.2 ng/mL
- concentration at 72 h ([2]; 100 mg suspension, fasted): 12.8 ng/mL
- concentration at 0 h ([2]; 100 mg tablet, fasted): 12.1 ng/mL
- concentration at 0.5 h ([2]; 100 mg tablet, fasted): 1600 ng/mL
- concentration at 1 h ([2]; 100 mg tablet, fasted): 2110 ng/mL
- concentration at 1.5 h ([2]; 100 mg tablet, fasted): 2400 ng/mL
- concentration at 2 h ([2]; 100 mg tablet, fasted): 2550 ng/mL
- concentration at 2.5 h ([2]; 100 mg tablet, fasted): 2530 ng/mL
- concentration at 3 h ([2]; 100 mg tablet, fasted): 2580 ng/mL
- concentration at 4 h ([2]; 100 mg tablet, fasted): 2580 ng/mL
- concentration at 6 h ([2]; 100 mg tablet, fasted): 2070 ng/mL
- concentration at 8 h ([2]; 100 mg tablet, fasted): 1650 ng/mL
- concentration at 10 h ([2]; 100 mg tablet, fasted): 1250 ng/mL
- concentration at 12 h ([2]; 100 mg tablet, fasted): 891 ng/mL
- concentration at 24 h ([2]; 100 mg tablet, fasted): 324 ng/mL
- concentration at 36 h ([2]; 100 mg tablet, fasted): 59.5 ng/mL
- concentration at 48 h ([2]; 100 mg tablet, fasted): 29 ng/mL
- concentration at 72 h ([2]; 100 mg tablet, fasted): 11.4 ng/mL
- concentration at 0 h ([2]; 100 mg tablet, fed): 12.1 ng/mL
- concentration at 0.5 h ([2]; 100 mg tablet, fed): 1660 ng/mL
- concentration at 1 h ([2]; 100 mg tablet, fed): 2220 ng/mL
- concentration at 1.5 h ([2]; 100 mg tablet, fed): 2320 ng/mL
- concentration at 2 h ([2]; 100 mg tablet, fed): 2850 ng/mL
- concentration at 2.5 h ([2]; 100 mg tablet, fed): 2910 ng/mL
- concentration at 3 h ([2]; 100 mg tablet, fed): 2950 ng/mL
- concentration at 4 h ([2]; 100 mg tablet, fed): 2860 ng/mL
- concentration at 6 h ([2]; 100 mg tablet, fed): 2260 ng/mL
- concentration at 8 h ([2]; 100 mg tablet, fed): 1740 ng/mL
- concentration at 10 h ([2]; 100 mg tablet, fed): 1270 ng/mL
- concentration at 12 h ([2]; 100 mg tablet, fed): 963 ng/mL
- concentration at 24 h ([2]; 100 mg tablet, fed): 329 ng/mL
- concentration at 36 h ([2]; 100 mg tablet, fed): 90.1 ng/mL
- concentration at 48 h ([2]; 100 mg tablet, fed): 45 ng/mL
- concentration at 72 h ([2]; 100 mg tablet, fed): 15 ng/mL
Compound: NC(=O)N1CCC[C@@H](N(C(=O)NCc2ccc(OC(F)(F)F)cc2F)C2CC2)C1 [Cpd 1, (R)-3-(1-cyclopropyl-3-(2-fluoro-4-(trifluoromethoxy)benzyl)ureido) piperidine-1-carboxamide]
